# What was measured:
# Ras protein = Ras protein (Homo sapiens, UniProt P01116); assay: GDPx_Icagen_IC50: SOS1-mediated guanine nucleotide exchange rate of Ras (mant-GDP); format: biochemical; details: SOS1-initiated exchange
# Excerpt: (§1) In some embodiments, the IC50 assay measures the reduction effect of a given compound on the guanine nucleotide-echange rate of Ras protein in the presence of guanine nucleotide exchange protein SOS1, which is a Ras activator. In the assay GDP-loaded Ras was first prepared in a buffer containing the compound at certain concentration and fluorescent guanine nucleotide (mant-GDP (used in Icagene assay) or mant-GTP (used in other IC50 assays). The guanine nucleotide exchange was initiated by the addition of the SOS1 and its rate was reflected in the rate of fluorescence change as a function of time, which was monitored by a reader. The experiment was repeated at different compound concentrations and the IC50 of the compound was defined as the compound concentration at which half of its maximal reduction effect on the guanine nucleotide exchange rate is achieved. In other embodiments, other Ras activator proteins may be used. Non-limiting examples of other Ras activator proteins include RasGRP (Ras guanyl-releasing protein).
# Example 17. Evaluation of Biological Activities: GDPx_Icagen_ICso
# as §1, with “The IC50” for “In some embodiments, the IC50”, “guanine nucleotide-exchange” for “guanine nucleotide-echange”, “Ras is” for “Ras was”, “nucleotide (mant-GDP).” for “nucleotide (mant-GDP (used in Icagene assay) or mant-GTP (used in other IC50 assays).”, “achieved.” for “achieved. In other embodiments, other Ras activator proteins may be used. Non-limiting examples of other Ras activator proteins include RasGRP (Ras guanyl-releasing protein).”
# KRAS4B (wild type) = target: T1, KRAS4B (wild type) (Homo sapiens, UniProt P01116); assay: K-Ras Nucleotide Exchange Assay-384 (SOS Exchange Assay by Cytoskeleton, GTPx_Cyt_IC50); format: biochemical; details: 1 μM KRAS4B, 0.05 μM SOS1, 1.5 μM mant-GDP
# T1 construct: purchased Cytoskeleton CS-RS03 (K-Ras4B); CS-SOS1-A (SOS1)
# T1 sequence (P01116 1-188 isoform P01116-2): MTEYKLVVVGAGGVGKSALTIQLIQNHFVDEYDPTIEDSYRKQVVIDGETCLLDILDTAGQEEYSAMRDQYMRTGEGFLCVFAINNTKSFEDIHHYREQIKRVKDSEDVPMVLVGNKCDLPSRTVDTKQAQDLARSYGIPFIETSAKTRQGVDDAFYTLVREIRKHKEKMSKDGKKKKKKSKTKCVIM
# Experimental: Example 16. Evaluation of Biological Activities: K-Ras Nucleotide Exchange Assay-384 (SOS Exchange Assay by Cytoskeleton (GTPx_Cyt_IC50))
# This assay is used to evaluate inhibitors of K-ras, by monitoring the inhibition of nucleotide exchange over time, in the presence of the protein SOS.
# 384-well black, untreated plates (Corning 3820 with NBS or 3821 untreated) were used. K-Ras4B Protein was used, which is wild-type (Cytoskeleton #CS-RS03) with a concnetration of 5 mg/ml, or 200 μM. Human SOS1 Protein, Exchange Domain 564-1049 (Cytoskeleton # CS-SOS1-A) was used in a concentration of 3.03 mg/ml or 50 μM. Mant-GDP triethylammonium salt solution was purchased from Sigma (catalog No. 69244). 1M stock solution of Hepes was purchased from Sigma (catalog No. H9897). 1M stock solution of MgCl2 was purchased from Sigma (catalog No. M4880). CHAPS, 3% was purchased from Sigma (catalog No. C5070). Nonidet P40 was purchased from Sigma. KOH pellets were purchased from Sigma.
# K-ras buffer containing 40 mM Hepes, 10 mM MgCl2, 0.05% CHAPS, 0.01% NP40 with a pH 7.5 was prepared as follows: to a Buffer base containing 4 ml 1M Hepes, 1 ml MgCl2,
# 93.3 ml d-H2O, pH 7.5 (with KOH pellets), 1.7 ml 3% CHAPS was added, followed by the addition of 1 ml 1% NP40.
# Final Conditions of the method included 1 μM KRAS4B (wild type), 0.05 μM SOS1, 1.5 μM mant-GDP. Reagent Preparation included: thawing aliquots of KRAS, SOS, and mant-GDP; preparing 3x KRAS (3 uM) in assay buffer; preparing 3x SOS/mant-GDP (150 nM/4.5 uM) in assay buffer; and preparing 3x compounds in assay buffer.
# Assay Procedure (1536) used 3.3 μl, 3x Kras, 3.3 μl 3x compound with preincubate 0 hour, and […] 3x SOS/mant-GDP. A kinetic read measuring fluorescence at 360_450 was performed for 30 min at 30 second intervals.
# Reference compound SCH 54292 (reversible inhibitor) at about 100 μM was used with no preincubation. Reagents were only stable for 45 min on ice, and therefore were prepared fresh before each assay. Partial plates (up to 9 columns) were run at a time to minimize effects due to the amount of time it takes to read a whole plate. SOS/mant-GDP were added with an automated pipettor to initiate all reactions at the same time. Assay was typically performed at 0.5% solution in DMSO (compounds prepared in 1.5% DMSO initially).
# Clariostar Settings were as follows. Test Name was Kras Kinetic 360-450. Basic settings of the test included Measurement type as Fluorescence (FI), and Microplate name as Corning 3820. Plate mode settings included 61 cycles, 30 second cycle time, and 10 flashes per well. Optic settings were as follows. Excitation wavelength was 360 nm. Emission wavelength was 450 nM. Excitation bandwidth was 12 nm. Emission bandwidth was 12 nm. Dichroic filter 405 was used. D6 Well(s) was used for gain adjustment. No shaking was used. General settings were as follows. Top optic was used. Settling time was 0.1 second. Reading direction was bidirectional, horizontal left to right, and bottom to top. The target temperature was 25° C.
# Chain of Ras protein (P01116 1-188 isoform P01116-2): as above
SMILES,IC50 (Ras protein),IC50 (KRAS4B (wild type))
"O=c1cc(CSc2nc(-c3ccccc3)cs2)[nH]n1-c1nc2ccccc2[nH]1 [Compound 151, 2-(1H-benzo[d]imidazol-2-yl)-5-(((4-phenylthiazol-2-yl)thio)methyl)-1,2-dihydro-3H-pyrazol-3-one]",0.4 µM,0.4 µM
"O=c1cc(CSc2nc3cc(Cl)ccc3s2)[nH]n1-c1nc2ccccc2[nH]1 [Compound 154, 2-(1H-benzo[d]imidazol-2-yl)-5-(((5-chlorobenzo[d]thiazol-2-yl)thio)methyl)-1,2-dihydro-3H-pyrazol-3-one]",0.3 µM,1.3 µM
"O=c1cc(CSc2ccc(Cl)cc2)[nH]n1-c1nc2ccccc2[nH]1 [Compound 183, 2-(1H-benzo[d]imidazol-2-yl)-5-(((4-chlorophenyl)thio)methyl)-1,2-dihydro-3H-pyrazol-3-one]",0.2 µM,300 µM
"[N-]=[N+]=NCc1ccc(SCc2cc(=O)n(-c3nc4ccccc4[nH]3)[nH]2)cc1 [Compound 162, 5-(((4-(azidomethyl)phenyl)thio)methyl)-2-(1H-benzo[d]imidazol-2-yl)-1,2-dihydro-3H-pyrazol-3-one]",100 µM,1.4 µM
"O=c1cc(CSc2ncccn2)[nH]n1-c1nc2ccccc2[nH]1 [Compound 156, 2-(1H-benzo[d]imidazol-2-yl)-5-((pyrimidin-2-ylthio)methyl)-1,2-dihydro-3H-pyrazol-3-one]",3 µM,7 µM
"NC(=O)c1cccc(SCc2cc(=O)n(-c3nc4ccccc4[nH]3)[nH]2)c1 [Compound 159, 3-(((1-(1H-benzo[d]imidazol-2-yl)-5-oxo-2,5-dihydro-1H-pyrazol-3-yl)methyl)thio)benzamide]",0.5 µM,1 µM
"Cc1ccnc(-n2[nH]c(CSc3ccccc3)cc2=O)c1 [Compound 174, 2-(4-methylpyridin-2-yl)-5-((phenylthio)methyl)-1,2-dihydro-3H-pyrazol-3-one]",9.3 µM,2.7 µM
"Cc1nnc(SCc2cc(=O)n(-c3nc4ccccc4[nH]3)[nH]2)s1 [Compound 147, 2-(1H-benzo[d]imidazol-2-yl)-5-(((5-methyl-1,3,4-thiadiazol-2-yl)thio)methyl)-1,2-dihydro-3H-pyrazol-3-one]",3.3 µM,0.85 µM
"Cc1csc(SCc2cc(=O)n(-c3ccccn3)[nH]2)n1 [Compound 182, 5-(((4-methylthiazol-2-yl)thio)methyl)-2-(pyridin-2-yl)-1,2-dihydro-3H-pyrazol-3-one]",3.2 µM,–
"O=c1cc(CSc2ccccc2Cl)[nH]n1-c1nc2ccccc2[nH]1 [Compound 167, 2-(1H-benzo[d]imidazol-2-yl)-5-(((2-chlorophenyl)thio)methyl)-1,2-dihydro-3H-pyrazol-3-one]",0.2 µM,300 µM
"O=c1cc(CSc2ccncc2)[nH]n1-c1nc2ccccc2[nH]1 [Compound 168, 2-(1H-benzo[d]imidazol-2-yl)-5-((pyridin-4-ylthio)methyl)-1,2-dihydro-3H-pyrazol-3-one]",2.3 µM,7 µM
"O=c1cc(CSCc2ccc(F)cc2)[nH]n1-c1nc2ccccc2[nH]1 [Compound 148, 2-(1H-benzo[d]imidazol-2-yl)-5-(((4-fluorobenzyl)thio)methyl)-1,2-dihydro-3H-pyrazol-3-one]",0.3 µM,0.55 µM
"Cc1cc(C)nc(SCc2cc(=O)n(-c3ccc(C(F)(F)F)cn3)[nH]2)n1 [Compound 157, 5-(((4,6-dimethylpyrimidin-2-yl)thio)methyl)-2-(5-(trifluoromethyl)pyridin-2-yl)-1,2-dihydro-3H-pyrazol-3-one]",–,17.6 µM
"O=c1cc(CSCc2ccc(F)cc2)[nH]n1-c1ccccn1 [Compound 161, 5-(((4-fluorobenzyl)thio)methyl)-2-(pyridin-2-yl)-1,2-dihydro-3H-pyrazol-3-one]",–,2.7 µM
"Cc1cc(C)nc(SCc2cc(=O)n(-c3ccccn3)[nH]2)n1 [Compound 143, 5-(((4,6-dimethylpyrimidin-2-yl)thio)methyl)-2-(pyridin-2-yl)-1,2-dihydro-3H-pyrazol-3-one]",2.1 µM,5.4 µM
"O=c1cc(CSc2cc(Cl)cc(Cl)c2)[nH]n1-c1nc2ccccc2[nH]1 [Compound 175, 2-(1H-benzo[d]imidazol-2-yl)-5-(((3,5-dichlorophenyl)thio)methyl)-1,2-dihydro-3H-pyrazol-3-one]",0.063 µM,–
"O=c1cc(CSc2ccccc2)[nH]n1-c1cc(Br)ccn1 [Compound 176, 2-(4-bromopyridin-2-yl)-5-((phenylthio)methyl)-1,2-dihydro-3H-pyrazol-3-one]",6 µM,–
"O=c1cc(CSc2ccc(Br)cn2)[nH]n1-c1ccccn1 [Compound 160, 5-(((5-bromopyridin-2-yl)thio)methyl)-2-(pyridin-2-yl)-1,2-dihydro-3H-pyrazol-3-one]",–,7.4 µM
"O=c1cc(CSc2nc3cccnc3s2)[nH]n1-c1nc2ccccc2[nH]1 [Compound 177, 2-(1H-benzo[d]imidazol-2-yl)-5-((thiazolo[5,4-b]pyridin-2-ylthio)methyl)-1,2-dihydro-3H-pyrazol-3-one]",0.4 µM,–
"O=c1cc(CSc2nc(Cc3ccccc3)cs2)[nH]n1-c1nc2ccccc2[nH]1 [Compound 180, 2-(1H-benzo[d]imidazol-2-yl)-5-(((4-benzylthiazol-2-yl)thio)methyl)-1,2-dihydro-3H-pyrazol-3-one]",0.2 µM,–
"NC(=O)c1ccc(SCc2cc(=O)n(-c3nc4ccccc4[nH]3)[nH]2)cc1 [Compound 178, 4-(((1-(1H-benzo[d]imidazol-2-yl)-5-oxo-2,5-dihydro-1H-pyrazol-3-yl)methyl)thio)benzamide]",0.32 µM,–
"CCc1csc(SCc2cc(=O)n(-c3nc4ccccc4[nH]3)[nH]2)n1 [Compound 139, 2-(1H-benzo[d]imidazol-2-yl)-5-(((4-ethylthiazol-2-yl)thio)methyl)-1H-pyrazol-3(2H)-one]",0.05 µM,–
"Cc1cc(C)nc(SCc2cc(=O)n(-c3nc4ccc(Br)cc4s3)[nH]2)n1 [Compound 155, 2-(6-bromobenzo[d]thiazol-2-yl)-5-(((4,6-dimethylpyrimidin-2-yl)thio)methyl)-1,2-dihydro-3H-pyrazol-3-one]",–,12.8 µM
"O=c1cc(CSc2cccnc2)[nH]n1-c1nc2ccccc2[nH]1 [Compound 181, 2-(1H-benzo[d]imidazol-2-yl)-5-((pyridin-3-ylthio)methyl)-1,2-dihydro-3H-pyrazol-3-one]",2.5 µM,–
"O=c1cc(CSc2ccccc2)[nH]n1-c1ncc[nH]1 [Compound 179, 2-(1H-imidazol-2-yl)-5-((phenylthio)methyl)-1,2-dihydro-3H-pyrazol-3-one]",4.5 µM,–

# — patent publication US20200308165A1, “Compounds as Ras Inhibitors and Use Thereof” (D.E. Shaw Research, LLC, priority 2017, published 2020)
